Data set [1] relates to NTM-5 cells. Nature of the data set: Superoxide scavenging ratio in NTM-5 cell supernatant (pyrogallol assay), with or without TBHP. Format: cell-based, human. To be noted: for AUC0-3h of superoxide scavenging ratio: NTM-5 cell supernatant, 18 h treatment, 0.1-1000 µM. On the procedure: The ROS scavenging ratio was determined using a chemical assay where WST-1 was used as superoxide scavenger produced by pyrogallol following a reported protocol. Briefly, the superoxide anion radical scavenging activity was determined spectrophotometrically by measuring the formation of WST-1 formazan at 450 nm. WST-1 (40 µL, 50 µM) was added to the compounds (or corresponding solution) in a final volume of 160 µL in 50 mM ammonium hydrogen carbonate buffer, 0.5 mM EDTA, pH 9.3. Reaction was launched by adding 40 µL 1 mM pyrogallol. The operation was based on the 96-well microplate, and measurement was performed at different time points under 37 °C by Cytation5 Microplate Reader. Baicalein (1 mM) was used as positive control. Compounds SA-2, SA-9, and SA-10 were used in concentrations ranging from 1 µM, 10 µM, 100 µM, and 1000 µM. The superoxide anion radical scavenging ratio % was calculated according to the following formula:Scavenging ratio (%) = A0 − (A1 − A2)/A0 × 100% […]
The experiments were repeated twice with four technical replicates.
Figure 2 Superoxide scavenging ability of SA compounds in buffer and cells. (a) The % of superoxide scavenging response from 1 mM concentration of SA-2, SA-9, and SA-10 in pyrogallol (Pyr, 1 mM) induced superoxide induction assay at different time points in buffer. The AUC0–2.5 h for SA-2, SA-9, and SA-10 were 1592 ± 37.87, 1355 ± 42.62, and 2350 ± 69.26, respectively. (b) Comparison of the % ROS scavenging activity of SA-2, SA-9, and SA-10 with control after 15 min of treatment of pyrogallol. (c) The superoxide scavenging ratio (%) after 18 h treatment of 10 µM concentration of SA-2, SA-9, and SA-10 to NTM-5 cell supernatant using pyrogallol induced superoxide induction assay at different time points. (d) The superoxide scavenging ratio (%) of 10 µM concentration of SA-2, SA-9, and SA-10 in NTM-5 cell supernatant. The cells were previously treated with 5.5 mM of TBHP for 30 min followed by SA compounds and incubated for 18 h. Control is untreated cells. Three technical replicates were used for each experiment and all experiments were repeated 2 times. * p < 0.05, ** p < 0.005, *** p < 0.001, **** p < 0.0001, One-way ANOVA for (b), and two-way ANOVA for (c,d).
Figure S1: Superoxide scavenging ability of SA compounds in buffer and cells. a) The % of superoxide scavenging response from different concentrations of SA-2, SA-9 and SA-10 in pyrogallol (1 µM, 10 µM, 100 µM and 1,000 µM) induced superoxide induction assay at 15 minutes time point in buffer solution. The […]
superoxide scavenging ratio (%) after 18h treatment of different concentrations (0.1 µM, 1 µM, 10 µM, 100 µM and 1,000 µM) of SA-2, SA-9 and SA-10 to NTM-5 cell supernatant with or without TBHP (5.5 mM) using pyrogallol induced superoxide induction assay at 3h time point. Control is untreated cells. The cells were previously treated with 5.5 mM of TBHP for 30 minutes followed by SA compounds and TBHP and incubated for 18h. Control is untreated cells. e) The AUC0-3h for SA-2, SA-9 and SA-10 were 18902 ± 2714, […]
for each experiment and all experiments were repeated 2 times. N = 3.
(1 picture or pasted object on this page, not shown here)

Data set [2] in a line: Hypochlorous acid (HOCl) radical scavenging assay (TNB) in buffer. Type of data set: biochemical. On the procedure:
This assay used the redox reaction between 5-thio-2-nitrobenzoic acid (TNB) and HOCl to form dithio-TNB. Using the method described previously, we assessed the % TNB remaining with or without treatment with SA compounds. Compounds SA-2, SA-9, and SA-10 were used in concentrations ranging from 0.1 µM, 1 µM, 10 µM, 100 µM, and 1000 µM. Lipoic acid (1 mM) was used as positive control.

Data set [3] in a line: Total nitrite/NO release by Griess assay in buffer (aqueous stability). Format: physicochemical. To be noted: even after 3 days. On the procedure:
The total nitrite released from the compounds in buffer and in cell supernatant were measured by Griess assay as reported by us previously. In brief, compounds (SA-2, SA-9, and SA-10) in buffer at different concentrations (1 mM, 500 µM, 250 µM 125 µM, 62.5 µM, 31.25 µM, and 15.625 µM) or supernatant collected from Human transformed trabecular meshwork (NTM-5) cells were added to a 96-well plate. 1% Sulphanilamide in 5% phosphoric acid and 0.1% N-1-napthylethylenediamine dihydrochloride (NED) were added to experimental samples sequentially at room temperature and away from light. SIN-1 was used as reference standard. […]
In general terms: The Griess reaction detects nitrite, a stable product of nitric oxide.

For data set [4], the system named is NTM-5 cells. Nature of the data set: In vitro cytoprotection assay against TBHP (MTT). Format: cell-based. To be noted: Homo sapiens, TBHP 350 µM, read-out: EC50 of increase in cell viability (cytoprotection). On the procedure: After 24 h of treatment, cell proliferation was measured using MTT assay. All the experiments are done in duplicate with four experimental replicates.

The subject of data set [5] is NTM-5 cells. Nature of the data set: In vitro peroxynitrite measurement assay. Format: cell-based, human. To be noted: 0.1 µM and 1 mM, with or without TBHP 350 µM. On the procedure: Human transformed trabecular meshwork (NTM-5) cells (20,000 cells/well/90 µL) were seeded in 96-well plates (Griener bio-one black plate) and stained with 10 µL of 10X Peroxynitrite Sensor Green solution for 1 h. […] SIN-1 was used as a positive control. Detection of peroxynitrite was done using Peroxynitrite Assay Kit (abcam-ab233468-cell based). Fluorescence signals were measured using a microplate reader (Cytation5) at Ex/Em = 485/530 nm at time intervals (15 min, 30 min, 1 h, 2 h, and 3 h). The experiments were done in duplicates.

The nature of data set [6]: Ocular biodistribution after SA-9 and SA-9 NPs eye drop. Format: in vivo. To be noted: topical, 30 µL of 2% SA-9 solution, mouse, 1 h after single eye drop of 2% SA-9 solution.
The test system of data set [7] is NTM-5 cells. Nature of the data set: In vitro cell viability (MTT) assay. To be noted: NTM-5 cells, 24 h, up to 1000 µM.
Description: NTM-5 cells (6000 cells/well) were seeded in 96-well plates to confluency. […] The cell viability and proliferation were measured using MTT assays (CellTiter 96® AQueous One Solution Cell Proliferation Assay, Promega Madison, WI, USA) following manufacturer instruction. The experiments were repeated twice with four technical replicates.

Where two headings read alike, the source gives them in different places. Where only a bound is given, the exact number is not on record here.

As for `Cl.[NH-]c1c[n+](C2CCSCC2)no1` [SA-9, (3-(tetrahydro-2H-thiopyran-4-yl)-1,2,3-oxadiazol-3-ium-5-yl)amide hydrochloride], the “superoxide scavenging ability (ratio)” value with NTM-5 cells [1] (10 µM for 18 h, NTM-5 cells insulted with TBHP, TBHP alone 2.5%) was 20–25%. Further, the “fold prevention of the decrease in superoxide scavenging ability vs TBHP alone” value in the data set with NTM-5 cells [1] (10 µM for 18 h, TBHP-treated NTM-5 cells) is recorded as ~ 10 fold. Further, the results for the “AUC0-3h of superoxide scavenging ratio” value with NTM-5 cells [1] (with TBHP 5.5 mM) and in the data set with NTM-5 cells [1] (without TBHP) were 14120 ± 2023 and 21155 ± 1099, respectively. Moreover, in data set [2] (0.1 µM vs. 1 mM lipoic acid, 30 min), the “fold more potent than lipoic acid in HOCl scavenging” value is 10,000 fold. Moreover, the “duration of HOCl scavenging effect” value in data set [2] (0.1 µM–1000 µM in buffer) was greater than 1 h. The “NO release in buffer” value in data set [3] was “did not observe any NO release”. For the same molecule, in the data set with NTM-5 cells [4], the EC50 came to 1 µM. Moreover, the “ONOO− radical formation” value in the data set with NTM-5 cells [5] is reported as “significantly less amount of radicals”. Besides, the concentration at 1 h was 28900 ± 2500 ng/g in data set [6] (choroid + sclera, read-out: concentration of SA-9 in choroid + sclera); 20500 ± 8300 ng/g in data set [6] (lens, read-out: concentration of SA-9 in lens); 1300 ± 90 ng/g in data set [6] (optic nerve, read-out: concentration of SA-9 in ON); 8250 ± 10200 ng/g in data set [6] (retina, read-out: concentration of SA-9 in retina). For the same molecule, in the data set on NTM-5 cells [7], the cytotoxicity result was “no cytotoxicity”.

By EC50 is commonly meant the concentration needed to bring the measured effect to its halfway point.

These data come from article PMC8068288, “Novel Thiol Containing Hybrid Antioxidant-Nitric Oxide Donor Small Molecules for Treatment of Glaucoma” (Antioxidants, 2021).
